# According to US9469642B2, “Purinone compounds as kinase inhibitors” (Pharmacyclics LLC, priority 2012, dated 2016):
# Counter-ions that a name gives are not always drawn.
# Key:
# Format in all cases: biochemical
# BTK = molecular target: T1, BTK (Homo sapiens, UniProt Q06187); assay: Btk in vitro inhibitory activity (kinase assay by one of Methods A, B or C)
# T1 construct: purified from insect cells as a full-length construct containing a N-terminal 6×-His tag; His6 (N); host or cells: insect cells (baculovirus Sf21)
# T1 sequence (Q06187 whole entry): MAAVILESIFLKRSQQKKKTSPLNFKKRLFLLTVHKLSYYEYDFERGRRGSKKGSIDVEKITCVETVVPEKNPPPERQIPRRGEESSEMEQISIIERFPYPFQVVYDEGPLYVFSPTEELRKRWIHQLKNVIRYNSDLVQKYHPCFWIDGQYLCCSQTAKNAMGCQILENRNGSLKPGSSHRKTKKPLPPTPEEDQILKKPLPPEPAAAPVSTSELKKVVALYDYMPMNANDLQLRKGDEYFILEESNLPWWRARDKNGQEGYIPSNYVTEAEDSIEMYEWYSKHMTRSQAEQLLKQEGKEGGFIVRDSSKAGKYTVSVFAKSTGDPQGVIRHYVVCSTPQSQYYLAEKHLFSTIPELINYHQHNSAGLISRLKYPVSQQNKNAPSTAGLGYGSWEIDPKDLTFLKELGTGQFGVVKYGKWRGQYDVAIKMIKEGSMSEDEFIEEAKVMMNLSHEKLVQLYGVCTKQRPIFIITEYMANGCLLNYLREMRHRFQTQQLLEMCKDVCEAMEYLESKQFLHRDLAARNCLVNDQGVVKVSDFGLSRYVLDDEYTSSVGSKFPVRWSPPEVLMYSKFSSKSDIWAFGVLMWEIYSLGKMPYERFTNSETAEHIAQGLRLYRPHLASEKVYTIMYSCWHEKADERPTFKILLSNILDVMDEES
# Method: (§1) Btk kinase activity is determined using a time-resolved fluorescence resonance energy transfer (TR-FRET) methodology. Measurements are performed in a reaction volume of 50 μL using 96-well assay plates. Kinase enzyme, inhibitor, ATP (at the Km for the kinase), and 1 peptide substrate (Biotin-AVLESEEELYSSARQ-NH2) are incubated in a reaction buffer composed of 20 mM Tris, 50 mM NaCl, MgCl2 (5-25 mM depending on the kinase), MnCl2 (0-10 mM), 1 mM DTT, 0.1 mM EDTA, 0.01% bovine serum albumin, 0.005% Tween-20, and 10% DMSO at pH 7.4 for one hour. The reaction is quenched by the addition of 1.2 equivalents of EDTA (relative to divalent cation) in 25 μL of 1× Lance buffer (Perkin-Elmer). Streptavidin-APC (Perkin-Elmer) and Eu-labeled p-Tyr100 antibody (Perkin-Elmer) in 1× Lance buffer are added in a 25 μL volume to give final concentrations of 100 nM and 2.5 nM, respectively, and the mixture is allowed to incubate for one hour. The TR-FRET signal is measured on a multimode plate reader with an excitation wavelength (λEx) of 330 nm and detection wavelengths (λEm) of 615 and 665 nm. Activity is determined by the ratio of the fluorescence at 665 nm to that at 615 nm. For each compound, enzyme activity is measured at various concentrations of compound. Negative control reactions are performed in the absence of inhibitor in replicates of six, and two no-enzyme controls are used to determine baseline fluorescence levels. Inhibition constants, Ki(app), were obtained using the program BatchKi (Kuzmic et al. (2000), Anal. Biochem. 286:45-50). IC50s are obtained according to the equation: IC50=[…]+[E]total/2;
# (§2) For all kinases, [ATP]=Km^ATP, [Btk]total=0.5 nM and [Lck]total=6 nM.
# (§3) Kinase activity is measured in vitro using electrophoretic mobility shift assay. The kinase reactions are assembled in a total volume of 25 μL in 384 well plates. The reactions comprise: BTK enzyme (1 nM, N-terminal His6-tagged, recombinant, full-length, human BTK purified from baculovirus Sf21 insect cell system), inhibitor, ATP (16 μM, the apparent Km for the kinase), fluorescently labeled peptide substrate (1 μM, FAM-GEEPLYWSFPAKKK-NH2) in a reaction buffer composed of 100 mM HEPES, pH7.5, 5 mM MgCl2 1 mM DTT, 0.1% bovine serum albumin, 0.01% Triton X-100, and 1% DMSO. The reaction is incubated for one hour and is quenched by the addition of 45 μL of termination buffer (100 mM HEPES, pH7.5, 0.01% Triton X-100, 30 mM EDTA). The terminated reactions are analyzed using 12 channel LabChip® 3000 microfluidic detection instrument (Caliper Life Sciences). The enzymatic phosphorylation of the peptide results in a change in net charge, enabling electrophoretic separation of product from substrate peptide. As substrate and product peptides are separated, two peaks of fluorescence are observed. Change in the relative fluorescence intensity of the substrate and product peaks is the parameter measured, reflecting enzyme activity. In the presence of an inhibitor, the ratio between product and substrate is altered:the signal of the product decreases, while the signal of the substrate increases.
# (§4) Activity in each sample is determined as the product to sum ratio (PSR):P/(S+P), where P is the peak height of the product peptide and S is the peak height of the substrate peptide. For each compound, enzyme activity is measured at various concentrations (12 concentrations of compound spaced by 3× dilution intervals). Negative control samples (0%-inhibition in the absence of inhibitor) and positive control samples (100%-inhibition, in the presence of 20 mM EDTA) are assembled in replicates of four and are used to calculate %-inhibition values for each inhibitor at each concentration. Percent inhibition (Pinh) is determined using following equation: […]
# EGFR = EGFR (Homo sapiens, UniProt P00533); assay: Kinase panel inhibition, EGFR (one of the methods of Example 76a, 76b, 76c)
# Chain of EGFR (P00533 25-1210, species assumed): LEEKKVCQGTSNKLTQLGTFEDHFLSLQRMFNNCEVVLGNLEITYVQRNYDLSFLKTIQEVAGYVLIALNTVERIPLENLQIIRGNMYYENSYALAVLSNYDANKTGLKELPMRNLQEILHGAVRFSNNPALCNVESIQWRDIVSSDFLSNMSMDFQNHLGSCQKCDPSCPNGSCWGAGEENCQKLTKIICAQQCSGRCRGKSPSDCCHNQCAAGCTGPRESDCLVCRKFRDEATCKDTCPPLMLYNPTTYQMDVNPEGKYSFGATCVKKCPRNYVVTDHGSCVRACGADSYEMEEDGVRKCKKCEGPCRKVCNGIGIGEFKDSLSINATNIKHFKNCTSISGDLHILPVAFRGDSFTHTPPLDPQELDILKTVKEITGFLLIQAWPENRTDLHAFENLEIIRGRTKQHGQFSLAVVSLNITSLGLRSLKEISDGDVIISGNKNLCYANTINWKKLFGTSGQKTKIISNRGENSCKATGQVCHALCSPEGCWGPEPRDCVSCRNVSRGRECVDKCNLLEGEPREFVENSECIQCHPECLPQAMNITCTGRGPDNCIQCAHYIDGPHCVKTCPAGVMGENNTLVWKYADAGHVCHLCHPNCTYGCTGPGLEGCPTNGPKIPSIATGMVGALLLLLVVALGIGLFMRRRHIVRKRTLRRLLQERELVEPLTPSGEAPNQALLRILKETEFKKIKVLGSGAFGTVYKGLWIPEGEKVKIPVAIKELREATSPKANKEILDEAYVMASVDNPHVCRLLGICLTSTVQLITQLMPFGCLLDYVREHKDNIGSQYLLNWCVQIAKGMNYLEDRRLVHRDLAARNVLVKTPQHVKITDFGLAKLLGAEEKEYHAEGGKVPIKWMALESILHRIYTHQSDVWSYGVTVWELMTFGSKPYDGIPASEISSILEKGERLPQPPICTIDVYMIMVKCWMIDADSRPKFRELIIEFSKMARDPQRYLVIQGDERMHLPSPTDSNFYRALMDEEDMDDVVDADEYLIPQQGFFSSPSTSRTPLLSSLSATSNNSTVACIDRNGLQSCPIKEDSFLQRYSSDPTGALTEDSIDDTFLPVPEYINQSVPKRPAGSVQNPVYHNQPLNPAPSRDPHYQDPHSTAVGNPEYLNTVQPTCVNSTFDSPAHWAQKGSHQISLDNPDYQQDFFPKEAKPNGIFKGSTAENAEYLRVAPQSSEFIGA
# Method: as §1, §2, §3, §4
# LCK = LCK (Homo sapiens, UniProt P06239); assay: Kinase panel inhibition, LCK (one of the methods of Example 76a, 76b, 76c)
# Chain of LCK (P06239 whole entry, species assumed): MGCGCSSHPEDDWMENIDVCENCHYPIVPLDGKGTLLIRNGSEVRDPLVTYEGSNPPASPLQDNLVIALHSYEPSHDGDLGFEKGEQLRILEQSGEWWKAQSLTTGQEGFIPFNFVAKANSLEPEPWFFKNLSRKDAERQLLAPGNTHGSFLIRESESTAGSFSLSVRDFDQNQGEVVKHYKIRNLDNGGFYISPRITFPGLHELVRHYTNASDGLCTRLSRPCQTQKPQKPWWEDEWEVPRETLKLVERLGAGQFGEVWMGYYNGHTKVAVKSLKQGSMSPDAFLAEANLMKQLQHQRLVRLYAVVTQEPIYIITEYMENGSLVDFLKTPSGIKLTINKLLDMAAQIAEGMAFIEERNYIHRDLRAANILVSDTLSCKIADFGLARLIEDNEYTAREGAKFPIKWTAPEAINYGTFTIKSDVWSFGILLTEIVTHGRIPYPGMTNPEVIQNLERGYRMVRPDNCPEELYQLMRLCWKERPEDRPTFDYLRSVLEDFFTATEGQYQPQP
# Method: as §1, §2, §3, §4
SMILES,IC50 (BTK),IC50 (EGFR),IC50 (LCK)
"COc1cc(-n2c(=O)n(-c3ccc(N(C)C(=O)/C=C/CN(C)C)cc3)c3ncnc(N)c32)ccc1C [Compound 54, (E)-N-(4-(6-amino-7-(3-methoxy-4-methylphenyl)-8-oxo-7H-purin-9(8H)-yl)phenyl)-4-(dimethylamino)-N-methylbut-2-enamide]",< 100 nM,1000 to 10000 nM,1000 to 10000 nM
"CNC/C=C/C(=O)N(C)c1cccc(-n2c(=O)n(-c3ccc(Oc4ccccc4)cc3)c3c(N)ncnc32)c1 [Compound 229, (E)-N-(3-(6-amino-8-oxo-7-(4-phenoxyphenyl)-7H-purin-9(8H)-yl)phenyl)-N-methyl-4-(methylamino)but-2-enamide hydrochloride]",< 100 nM,< 100 nM,1000 to 10000 nM
"CN(C)C/C=C/C(=O)N(C)c1cccc(-n2c(=O)n(-c3ccc(Cl)cc3)c3c(N)ncnc32)c1 [Compound 27, (E)-N-(3-(6-amino-7-(4-chlorophenyl)-8-oxo-7H-purin-9(8H)-yl)phenyl)-4-(dimethylamino)-N-methylbut-2-enamide]",< 100 nM,> 10000 nM,> 10000 nM
"CN(C)C/C=C/C(=O)Nc1cccc(-n2c(=O)n(-c3ccc(Cl)cc3)c3c(N)ncnc32)c1 [Compound 14, (E)-N-(3-(6-amino-7-(4-chlorophenyl)-8-oxo-7H-purin-9(8H)-yl)phenyl)-4-(dimethylamino)but-2-enamide]",< 100 nM,1000 to 10000 nM,1000 to 10000 nM
"C=CC(=O)N(C)c1ccc(-n2c(=O)n(-c3ccc(C)c(OC)c3)c3c(N)ncnc32)cc1 [Compound 55, N-(4-(6-amino-7-(3-methoxy-4-methylphenyl)-8-oxo-7H-purin-9(8H)-yl)phenyl)-N-methylacrylamide]",< 100 nM,1000 to 10000 nM,1000 to 10000 nM
"CN(C/C=C/C(=O)Nc1cccc(-n2c(=O)n(-c3ccc(Oc4cccc(F)c4)cc3)c3c(N)ncnc32)c1)[C@H]1CCOC1 [Compound 316, (S,E)-N-(3-(6-amino-7-(4-(3-fluorophenoxy)phenyl)-8-oxo-7H-purin-9(8H)-yl)phenyl)-4-(methyl(tetrahydrofuran-3-yl)amino)but-2-enamide]",< 100 nM,100 to 1000 nM,1000 to 10000 nM
"CN(C/C=C/C(=O)N1CCOc2ccc(-n3c(=O)n(-c4ccc(Oc5ccccc5)cc4)c4c(N)ncnc43)cc21)C1CC1 [Compound 161, (E)-6-amino-9-(4-(4-(cyclopropyl(methyl)amino)but-2-enoyl)-3,4-dihydro-2H-benzo[b][1,4]oxazin-6-yl)-7-(4-phenoxyphenyl)-7H-purin-8(9H)-one]",< 100 nM,100 to 1000 nM,1000 to 10000 nM
"COc1cc(-n2c(=O)n(-c3cccc(NC(=O)/C=C/CN(C)C)c3)c3ncnc(N)c32)ccc1C [Compound 17, (E)-N-(3-(6-amino-7-(3-methoxy-4-methylphenyl)-8-oxo-7H-purin-9(8H)-yl)phenyl)-4-(dimethylamino)but-2-enamide]",< 100 nM,1000 to 10000 nM,1000 to 10000 nM
"CN(C(=O)/C=C/CN(C)C1CCC1)c1ccc(-n2c(=O)n(-c3ccc(Cl)cc3)c3c(N)ncnc32)cc1 [Compound 50, (E)-N-(4-(6-amino-7-(4-chlorophenyl)-8-oxo-7H-purin-9(8H)-yl)phenyl)-4-(cyclobutyl(methyl)amino)-N-methylbut-2-enamide]",100 to 1000 nM,> 10000 nM,1000 to 10000 nM
"COCCOc1ccc(-n2c(=O)n(-c3ccc(C)c(OC)c3)c3c(N)ncnc32)cc1NC(=O)/C=C/CN(C)C [Compound 112, (E)-N-(5-(6-amino-7-(3-methoxy-4-methylphenyl)-8-oxo-7H-purin-9(8H)-yl)-2-(2-methoxyethoxy)phenyl)-4-(dimethylamino)but-2-enamide]",< 100 nM,1000 to 10000 nM,1000 to 10000 nM
"CN(C/C=C/C(=O)Nc1cccc(-n2c(=O)n(-c3ccc(Oc4ccccc4)cc3)c3c(N)ncnc32)c1)C1CCC1 [Compound 10, (E)-N-(3-(6-amino-8-oxo-7-(4-phenoxyphenyl)-7H-purin-9(8H)-yl)phenyl)-4-(cyclobutyl(methyl)amino)but-2-enamide]",< 100 nM,< 100 nM,100 to 1000 nM

# Further lines, results first:
IC50 (BTK),IC50 (EGFR),IC50 (LCK),SMILES
< 100 nM,100 to 1000 nM,100 to 1000 nM,"Cc1cc(NC(=O)/C=C/CN(C)C2CC2)cc(-n2c(=O)n(-c3ccc(Oc4ccccc4)cc3)c3c(N)ncnc32)c1 [Compound 255, (E)-N-(3-(6-amino-8-oxo-7-(4-phenoxyphenyl)-7H-purin-9(8H)-yl)-5-methylphenyl)-4-(cyclopropyl(methyl)amino)but-2-enamide]"
< 100 nM,1000 to 10000 nM,1000 to 10000 nM,"COc1cc(N(C)C(=O)/C=C/CN(C)C2CC2)cc(-n2c(=O)n(-c3ccc(Oc4ccccc4)cc3)c3c(N)ncnc32)c1 [Compound 224, (E)-N-(3-(6-amino-8-oxo-7-(4-phenoxyphenyl)-7H-purin-9(8H)-yl)-5-methoxyphenyl)-4-(cyclopropyl(methyl)amino)-N-methylbut-2-enamide]"
< 100 nM,1000 to 10000 nM,1000 to 10000 nM,"CN(C(=O)/C=C/CN(C)[C@@H]1CCOC1)c1cccc(-n2c(=O)n(-c3ccc(Oc4ccccc4)cc3)c3c(N)ncnc32)c1 [Compound 129, (R,E)-N-(3-(6-amino-8-oxo-7-(4-phenoxyphenyl)-7H-purin-9(8H)-yl)phenyl)-N-methyl-4-(methyl(tetrahydrofuran-3-yl)amino)but-2-enamide]"
< 100 nM,100 to 1000 nM,1000 to 10000 nM,"Cc1cc(N(C)C(=O)/C=C/CN(C)C2CC2)cc(-n2c(=O)n(-c3ccc(Oc4ccccc4)cc3)c3c(N)ncnc32)c1 [Compound 211, (E)-N-(3-(6-amino-8-oxo-7-(4-phenoxyphenyl)-7H-purin-9(8H)-yl)-5-methylphenyl)-4-(cyclopropyl(methyl)amino)-N-methylbut-2-enamide]"
< 100 nM,> 10000 nM,> 10000 nM,"COc1ccc(-n2c(=O)n(-c3ccc(Oc4cccc(F)c4)cc3)c3c(N)ncnc32)cc1N(C)C(=O)/C=C/CN(C)C1CC1 [Compound 312, (E)-N-(5-(6-amino-7-(4-(3-fluorophenoxy)phenyl)-8-oxo-7H-purin-9(8H)-yl)-2-methoxyphenyl)-4-(cyclopropyl(methyl)amino)-N-methylbut-2-enamide]"
< 100 nM,100 to 1000 nM,1000 to 10000 nM,"CN(C)C/C=C/C(=O)N(C)c1cccc(-n2c(=O)n(-c3ccc(Oc4ccccc4)cc3)c3c(N)ncnc32)c1 [Compound 33, (E)-N-(3-(6-amino-8-oxo-7-(4-phenoxyphenyl)-7H-purin-9(8H)-yl)phenyl)-4-(dimethylamino)-N-methylbut-2-enamide]"
< 100 nM,100 to 1000 nM,100 to 1000 nM,"CN(C(=O)/C=C/CNC1CC1)c1cccc(-n2c(=O)n(-c3ccc(Oc4ccccc4)cc3)c3c(N)ncnc32)c1 [Compound 118, (E)-N-(3-(6-amino-8-oxo-7-(4-phenoxyphenyl)-7H-purin-9(8H)-yl)phenyl)-4-(cyclopropylamino)-N-methylbut-2-enamide]"
